Experiments:
Type in all cases: in vivo
[1] = test system: chronic ulcerative colitis model in IL-10 whole gene knockout mice; test: chronic ulcerative colitis in IL-10 whole gene knockout mice (survival, body weight, colon length, H&E pathology); settings: positive drug group, dose not given
Description: Ten C57 mice (aged 10-12 weeks, around 20 g) with an identified genotype of Wildtype were taken as the normal control group. […] The mice were administered by gavage once a day with a volume of 10 mL/kg, wherein the normal control group and DSS group were gavaged with a solvent of 0.5% CMC-Na while the other groups were separately gavaged with drugs dissolved in 0.5% CMC-Na.
(§1) After dissection, the colon of each mouse was taken and the length of the colon was measured separately.

[2] = test system: DSS induced acute ulcerative colitis model in C57 mice; test: DSS induced acute ulcerative colitis in C57 mice (body weight, DAI, colon length, H&E pathology)
Description: (§2) Except for the normal group, all other groups of mice were allowed to freely drink a 3% DSS solution which was freshly prepared and replaced the next day (wherein the 3% DSS solution was prepared by weighing 3 g of a DSS powder (from MP Biomedicals, USA with a molecular weight of 36,000 to 50,000) and fully dissolving it in 100 mL of the drinking water for the mice); whereas the normal group was given blank drinking water; the control group mice drank water normally for 7 days, while the DSS group mice drank the 3% DSS solution freely for 7 days and were administrated for 6 days from the second day DSS was given. The mice were administered by gavage once a day with a volume of 10 mL/kg, wherein the normal control group and DSS group were gavaged with a solvent of 0.5% CMC-Na (wherein a 0.5% CMC-Na solution is at a concentration of 0.5 g/100 mL, the same below), while the other groups were separately gavaged with drugs dissolved in 0.5% CMC-Na.
The normal control group mice were vivacious with glossy fur, stable weight gain, and normal stools appearing elliptical or spindle shaped.
In order to further evaluate the disease development for each group of acute UC mice, we performed DAI scoring on the loose and bloody stools etc. for each mouse (see panel B1 in FIG. 3). […] As the experiment progressed, the disease became gradually worsened, with some animals experiencing severe bloody stools and significant emaciation.
as §1

[3] = test system: IL-23; test: serum IL-23 protein by ELISA, DSS acute UC mice; settings: 10 mg/kg
Description: as §2
(§3) To investigate the effects of compounds (R)-STU104, (S)-STU104, and (±)-STU104 on the secretion of such inflammatory factors as TNF-α, IL-1β, IL-6, and IL-23 by mice of the DSS induced acute ulcerative colitis model in C57 mice, we isolated serum after blood acquisition and detected the contents of such inflammatory factors as TNF-α, IL-1β, IL-6, and IL-23 in the serum of mice using ELISA.

[4] = test system: IL-1β; test: colon tissue IL-1β mRNA by qPCR, DSS acute UC mice; settings: 10 mg/kg
Description: as §2
(§4) After dissection, a segment of the colon was taken from the same part of each mouse, total RNAs were extracted from tissues, and mRNA expressions of such inflammatory factors as TNF-α, IL-1β, IL-6, and IL-23 in colon tissues of the mice were detected through qPCR.

[5] = test system: IL-6; test: serum IL-6 protein by ELISA, DSS acute UC mice; settings: 10 mg/kg
Description: as §2, §3

[6] = test system: TNF-α; test: colon tissue TNF-α mRNA by qPCR, DSS acute UC mice; settings: 10 mg/kg
Description: as §2, §4

[7] = test system: IL-1β; test: serum IL-1β protein by ELISA, DSS acute UC mice; settings: 10 mg/kg
Description: as §2

[8] = test system: IL-6; test: colon tissue IL-6 mRNA by qPCR, DSS acute UC mice; settings: 10 mg/kg
Description: as §2, §4

[9] = test system: IL-23; test: colon tissue IL-23 mRNA by qPCR, DSS acute UC mice; settings: 10 mg/kg
Description: as §2, §4

[10] = test system: TNF-α; test: serum TNF-α protein by ELISA, DSS acute UC mice; settings: 10 mg/kg
Description: as §2, §3

Structure (SMILES) | recovery rate of colon pathological sections (H&E) [1] | total mortality rate [1] | colon length recovery rate (inhibition of colon shortening) ([2]; 50 mg/kg, gavage once a day) | recovery rate of colon pathological sections (H&E) ([2]; 50 mg/kg, gavage once a day) | body weight recovery rate ([2]; 50 mg/kg, gavage once a day, day 7) | inhibition ratio of IL-23 protein content in serum [3] | inhibition ratio of IL-1β mRNA in colon tissues [4] | inhibition ratio of IL-6 protein content in serum [5] | inhibition ratio of TNF-α mRNA in colon tissues [6] | inhibition ratio of IL-1β protein content in serum [7] | inhibition ratio of IL-6 mRNA in colon tissues [8] | improvement of acute UC symptoms ([2]; 10 mg/kg, compared with mesalazine 50 mg/kg) | colon length recovery rate (inhibition of colon shortening) ([2]; 10 mg/kg, gavage once a day) | recovery rate of colon pathological sections (H&E) ([2]; 10 mg/kg, gavage once a day) | inhibition ratio of IL-23 mRNA in colon tissues [9] | inhibition ratio of TNF-α protein content in serum [10]
Nc1ccc(O)c(C(=O)O)c1 [mesalazine, reference compound] | 44.3% | no deaths occurred | 26.4% | 38.0% | 7% |  |  |  |  |  |  |  |  |  |  | 
COc1ccc([C@@H]2CC(=O)c3cc(OC)cc(OC)c32)cc1 [(S)-STU104] |  |  |  |  |  | 18.9% | 27.7% | 32.6% | 22.0% | 18.1% | 8.1% | significantly lower than that in the mesalazine group | 14.5% | 13.9% | 10.6% | 10.2%
